Experimental data published in PubChem BioAssay (NCI).
Values joined by “and” are separate entries in the source; they are usually repeats but may differ in a detail not shown here. Identical values can stand only once.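 48-hour exposure; five concentrations; linearly interpolated endpoints. GI50 = concentration required for 50% inhibition of growth. TGI: total growth inhibition.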

Columns and labels:
Assay in all cases: NCI tumour cell line growth inhibition, 48 h
HCT-116 colon = tested on: HCT-116 colon
SK-MEL-5 melanoma = tested on: SK-MEL-5 melanoma
MOLT-4 leukemia = tested on: MOLT-4 leukemia
PC-3 prostate = tested on: PC-3 prostate
UACC-62 melanoma = tested on: UACC-62 melanoma
U251 CNS = tested on: U251 CNS
IGROV1 ovarian = tested on: IGROV1 ovarian
SF-539 CNS = tested on: SF-539 CNS
SW-620 colon = tested on: SW-620 colon
EKVX NSCLC = tested on: EKVX NSCLC
SN12C renal = tested on: SN12C renal
HOP-62 NSCLC = tested on: HOP-62 NSCLC
MCF7 breast = tested on: MCF7 breast
A498 renal = tested on: A498 renal
MALME-3M melanoma = tested on: MALME-3M melanoma
NCI/ADR-RES ovarian = tested on: NCI/ADR-RES ovarian
SNB-75 CNS = tested on: SNB-75 CNS
HT29 colon = tested on: HT29 colon
MDA-MB-435 = tested on: MDA-MB-435
T-47D breast = tested on: T-47D breast
M14 melanoma = tested on: M14 melanoma
SK-OV-3 ovarian = tested on: SK-OV-3 ovarian
OVCAR-5 ovarian = tested on: OVCAR-5 ovarian
NCI-H226 lung = tested on: NCI-H226 lung
OVCAR-3 ovarian = tested on: OVCAR-3 ovarian
HS 578T breast = tested on: HS 578T breast
HOP-92 NSCLC = tested on: HOP-92 NSCLC
TK-10 renal = tested on: TK-10 renal
RPMI-8226 leukemia = tested on: RPMI-8226 leukemia
DU-145 prostate = tested on: DU-145 prostate
HCC-2998 colon = tested on: HCC-2998 colon
KM12 colon = tested on: KM12 colon
UACC-257 melanoma = tested on: UACC-257 melanoma
MDA-MB-231 breast = tested on: MDA-MB-231 breast
K-562 leukemia = tested on: K-562 leukemia
CAKI-1 renal = tested on: CAKI-1 renal
HL-60(TB) leukemia = tested on: HL-60(TB) leukemia
NCI-H23 lung = tested on: NCI-H23 lung
OVCAR-8 ovarian = tested on: OVCAR-8 ovarian
NCI-H522 lung = tested on: NCI-H522 lung
SK-MEL-28 melanoma = tested on: SK-MEL-28 melanoma
COLO 205 colon = tested on: COLO 205 colon
NCI-H460 lung = tested on: NCI-H460 lung
ACHN renal = tested on: ACHN renal
OVCAR-4 ovarian = tested on: OVCAR-4 ovarian
LOX IMVI melanoma = tested on: LOX IMVI melanoma
786-0 renal = tested on: 786-0 renal
UO-31 renal = tested on: UO-31 renal
SR leukemia = tested on: SR leukemia
SNB-19 CNS = tested on: SNB-19 CNS
BT-549 breast = tested on: BT-549 breast
SF-295 CNS = tested on: SF-295 CNS
A549 NSCLC = tested on: A549 NSCLC
RXF 393 renal = tested on: RXF 393 renal
HCT-15 colon = tested on: HCT-15 colon
SF-268 CNS = tested on: SF-268 CNS
SK-MEL-2 melanoma = tested on: SK-MEL-2 melanoma
CCRF-CEM leukemia = tested on: CCRF-CEM leukemia

Structure (SMILES): COC(=O)c1ccc2c(C(=Nc3ccc(N(C)C(=O)CN4CCN(C)CC4)cc3)c3ccccc3)c(O)[nH]c2c1
- GI50 (HCT-116 colon): 1580 nM and 1480 nM
- TGI (HCT-116 colon): 3.06 µM and 2.97 µM
- GI50 (SK-MEL-5 melanoma): 3.94 µM and 2.32 µM
- TGI (SK-MEL-5 melanoma): 9.86 µM and 6.51 µM
- GI50 (MOLT-4 leukemia): 2210 nM and 2740 nM
- TGI (MOLT-4 leukemia): 22.1 µM and > 100 µM
- GI50 (PC-3 prostate): 5.2 µM and 25.6 µM
- TGI (PC-3 prostate): 53.2 µM and > 100 µM
- GI50 (UACC-62 melanoma): 2180 nM and 3090 nM
- TGI (UACC-62 melanoma): 5.09 µM and 21.4 µM
- GI50 (U251 CNS): 1440 nM and 1770 nM
- GI50 (IGROV1 ovarian): 839 nM and 967 nM
- TGI (IGROV1 ovarian): 22.5 µM and > 100 µM
- GI50 (SF-539 CNS): 597 nM and 1400 nM
- TGI (SF-539 CNS): 2.26 µM and 5.9 µM
- GI50 (SW-620 colon): 1870 nM
- TGI (SW-620 colon): 4.14 µM
- GI50 (EKVX NSCLC): 10.6 µM and 49.6 µM
- TGI (EKVX NSCLC): > 100 µM
- GI50 (SN12C renal): 1230 nM and 959 nM
- TGI (SN12C renal): 31.9 µM and > 87.6 µM
- GI50 (HOP-62 NSCLC): 1360 nM and 2320 nM
- TGI (HOP-62 NSCLC): 12.2 µM and > 100 µM
- GI50 (MCF7 breast): 1.55 µM and 4.48 µM
- TGI (MCF7 breast): 13.6 µM and > 100 µM
- GI50 (A498 renal): 613 nM and 604 nM
- TGI (A498 renal): 5.52 µM and 10.1 µM
- GI50 (MALME-3M melanoma): 1370 nM and 1440 nM
- TGI (MALME-3M melanoma): 2.94 µM and 3.46 µM
- GI50 (NCI/ADR-RES ovarian): 14.4 µM and > 32.7 µM
- TGI (NCI/ADR-RES ovarian): > 100 µM
- GI50 (SNB-75 CNS): 385 nM and 320 nM
- TGI (SNB-75 CNS): 9.71 µM and 7.71 µM
- GI50 (HT29 colon): 1220 nM
- TGI (HT29 colon): 3.9 µM
- GI50 (MDA-MB-435): 1630 nM and 1600 nM
- TGI (MDA-MB-435): 3.09 µM and 3.05 µM
- GI50 (T-47D breast): 3.66 µM and 16.7 µM
- TGI (T-47D breast): 36.3 µM and > 100 µM
- GI50 (M14 melanoma): 1750 nM and 1980 nM
- TGI (M14 melanoma): 3.56 µM and 3.98 µM
- GI50 (SK-OV-3 ovarian): 12.3 µM and > 57.6 µM
- TGI (SK-OV-3 ovarian): 44.1 µM and > 100 µM
- GI50 (OVCAR-5 ovarian): 1.73 µM and 6.75 µM
- GI50 (NCI-H226 lung): 2350 nM and 1820 nM
- TGI (NCI-H226 lung): 24.5 µM and 59.9 µM
- GI50 (OVCAR-3 ovarian): 7.08 µM and 19.9 µM
- TGI (OVCAR-3 ovarian): 16.1 µM and 47 µM
- GI50 (HS 578T breast): 546 nM and 648 nM
- GI50 (HOP-92 NSCLC): 690 nM and 1560 nM
- TGI (HOP-92 NSCLC): 12.7 µM and 15 µM
- GI50 (TK-10 renal): 4.63 µM and 19.2 µM
- TGI (TK-10 renal): 23.5 µM and > 100 µM
- GI50 (RPMI-8226 leukemia): 2.73 µM and 5.97 µM
- TGI (RPMI-8226 leukemia): 9.86 µM and 20.8 µM
- GI50 (DU-145 prostate): 3.22 µM and 6.14 µM
- TGI (DU-145 prostate): 14.9 µM and > 100 µM
- GI50 (HCC-2998 colon): 11.2 µM and 7.26 µM
- TGI (HCC-2998 colon): 30.7 µM and 73.8 µM
- GI50 (KM12 colon): 66 nM and 73 nM
- TGI (KM12 colon): 2050 nM and 1980 nM
- GI50 (UACC-257 melanoma): 1830 nM and 1540 nM
- TGI (UACC-257 melanoma): 4.48 µM and 3.1 µM
- GI50 (MDA-MB-231 breast): 1910 nM and 2500 nM
- TGI (MDA-MB-231 breast): 4.11 µM and 6.96 µM
- GI50 (K-562 leukemia): 224 nM and 466 nM
- TGI (K-562 leukemia): > 100 µM
- GI50 (CAKI-1 renal): 4.28 µM and 11.9 µM
- TGI (CAKI-1 renal): 25.3 µM and > 100 µM
- GI50 (HL-60(TB) leukemia): 9.41 µM and 9.59 µM
- TGI (HL-60(TB) leukemia): 32.3 µM and 32.1 µM
- GI50 (NCI-H23 lung): 5.23 µM and 6.98 µM
- TGI (NCI-H23 lung): 28.4 µM and > 100 µM
- GI50 (OVCAR-8 ovarian): 2310 nM and 2430 nM
- TGI (OVCAR-8 ovarian): 27.6 µM and > 100 µM
- GI50 (NCI-H522 lung): 1500 nM and 1750 nM
- TGI (NCI-H522 lung): 3.67 µM and 5.77 µM
- GI50 (SK-MEL-28 melanoma): 1770 nM and 1960 nM
- TGI (SK-MEL-28 melanoma): 3.35 µM and 3.5 µM
- GI50 (COLO 205 colon): 4.32 µM and 4.41 µM
- TGI (COLO 205 colon): 46.4 µM
- GI50 (NCI-H460 lung): 2020 nM and 2240 nM
- TGI (NCI-H460 lung): 4 µM and 4.96 µM
- GI50 (ACHN renal): 1580 nM and 2510 nM
- GI50 (OVCAR-4 ovarian): 5.17 µM and 13.1 µM
- TGI (OVCAR-4 ovarian): 59.6 µM and > 70.8 µM
- GI50 (LOX IMVI melanoma): 1240 nM and 1280 nM
- TGI (LOX IMVI melanoma): 3090 nM and 2750 nM
- GI50 (786-0 renal): 1930 nM and 1470 nM
- TGI (786-0 renal): 6.6 µM and 4.64 µM
- GI50 (UO-31 renal): 1200 nM and 739 nM
- TGI (UO-31 renal): 5.76 µM and > 34 µM
- GI50 (SR leukemia): 2500 nM
- TGI (SR leukemia): > 44.7 µM
- GI50 (SNB-19 CNS): 2.6 µM and 3.55 µM
- TGI (SNB-19 CNS): > 100 µM
- GI50 (BT-549 breast): 6.6 µM and 11.7 µM
- TGI (BT-549 breast): 22 µM and 29.7 µM
- GI50 (SF-295 CNS): 4.46 µM and 10.8 µM
- TGI (SF-295 CNS): 13.1 µM and > 56.9 µM
- GI50 (A549 NSCLC): 2740 nM and 2790 nM
- TGI (A549 NSCLC): > 100 µM
- GI50 (RXF 393 renal): 683 nM and 572 nM
- TGI (RXF 393 renal): 2470 nM and 2900 nM
- GI50 (HCT-15 colon): 2.22 µM and 5.45 µM
- TGI (HCT-15 colon): > 100 µM
- GI50 (SF-268 CNS): 1790 nM and 2290 nM
- GI50 (SK-MEL-2 melanoma): 8.11 µM and 3.6 µM
- TGI (SK-MEL-2 melanoma): 19.1 µM and 8.86 µM
- GI50 (CCRF-CEM leukemia): 2560 nM and 2810 nM
- TGI (CCRF-CEM leukemia): 16.7 µM and > 100 µM
